Assay results reported in publication PMC10477861, “Efficient Mining of Anticancer Peptides from Gut Metagenome” (Advanced Science, 2023).
Where no end group is shown, it is not given here.

Legend:
[1] = system: CT26 subcutaneous tumors; experiment: CT26 subcutaneous xenograft tumor model in nude mice; assay type: in vivo; set-up: Mean Diff, tumor volume growth, Control vs. peptide (Dunnett's multiple comparisons test): unit not given here; settings: for tumor size compared to control-treated animals: CT26 subcutaneous tumors, athymic nude mice, two intratumoral injections (day 0, day 2), monitored six days, p <0.05; for tumor size compared to control-treated animals / signs of acute toxicity in tumor-bearing mice / survival of treated mice: 0.80 mg kg-1 pACP2283 or 0.51 mg kg-1 pACP1780; for Mean Diff, tumor volume growth, Control vs. peptide (Dunnett's multiple comparisons test): CT26 tumors in nude mice, intratumoral pACP1780 0.51 mg kg-1 or pACP2283 0.80 mg kg-1 on day 0 and day 2, six mice per group; for signs of acute toxicity in tumor-bearing mice / survival of treated mice: athymic nude mice with CT26 tumors, two intratumoral injections
Description: To evaluate the translational relevance of our methodology, we selected these two pACPs for in vivo studies. […] Subcutaneous tumors were established using CT26 cells in athymic nude mice, and the animals were randomized to receive two intratumoral injections of 0.80 mg kg^−1 pACP2283, 0.51 mg kg^−1 pACP1780, or PBS control on day 0 and day 2. The dosage of pACPs was calculated as five times the CC50 of each compound in CT26 cells. Tumor size was monitored daily for six days (Figure 3c).
Six‐week‐old female nude mice were obtained from Beijing HFK Bioscience Co., Ltd. and were acclimated to the laboratory environment for one‐week prior to the commencement of the experiments. All experimental procedures were conducted in a manner that minimized discomfort, distress, and pain to the animals. Mice were group‐housed, with a maximum of five animals per cage, under a light‐dark cycle of 12 h, with a constant temperature of 21–22°C and humidity of 55 ± 5%. They were provided with standard rodent chow and water ad libitum. The Ethics Committee of the Institute of Microbiology, Chinese Academy of Sciences approved all procedures (SQIMCAS2021005).
Murine colorectal carcinoma cell line CT26 was cultured in RPMI‐1640 medium supplemented with 10% fetal bovine serum and 1% penicillin/streptomycin at 37°C and 5% CO2. Tumor formation was induced by injecting was 5×106 ml^−1 CT26 cells into the right forelimb of each mouse. All mice were housed in the same environment with sufficient food and water. Throughout the study, the survival status and tumor progression of the mice on a daily basis were observed. The mice were randomly divided into three groups and received different treatments. CT26 cells were injected on […] for all groups. On Day 0, ACPs (pACP1780: 0.51 mg kg^−1 and pACP2283: 0.80 mg kg^−1) were intratumorally injected, while the Control group received an intratumoral injection of the same volume of PBS. On Day 2, the ACPs were intratumorally injected again, and the Control group received an injection of the same volume of PBS.

[2] = system: BT474; experiment: MTT primary screening of anticancer activity, BT474; assay type: cell-based; settings: 25 µM pACP, 24 h, maintenance medium 1% FBS, ratio of viability to vehicle (PBS), at least three technical repetitions
Procedure, shortened: (§1)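 Single-concentration screen: cells at 60% confluence given peptide at 25 µM for 24 h in maintenance medium with 1% FBS. Viability by MTT kit; peptides with minimum effective inhibition concentration >25 µM deemed non-ACPs.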

[3] = system: EFM192A; experiment: MTT primary screening of anticancer activity, EFM192A; assay type: cell-based; settings: 25 µM pACP, 24 h, maintenance medium 1% FBS, ratio of viability to vehicle (PBS), at least three technical repetitions
Procedure, shortened: as §1

[4] = system: HCT116; experiment: MTT primary screening of anticancer activity, HCT116; assay type: cell-based, Human; settings: 25 µM pACP, 24 h, maintenance medium 1% FBS, ratio of viability to vehicle (PBS), at least three technical repetitions
Procedure, shortened: as §1

[5] = system: Hela; experiment: MTT primary screening of anticancer activity, Hela; assay type: cell-based, Human; settings: 25 µM pACP, 24 h, maintenance medium 1% FBS, ratio of viability to vehicle (PBS), at least three technical repetitions
Procedure, shortened: as §1

[6] = system: CT26 cells; experiment: Propidium iodide (PI) assay of CT26 membrane damage; assay type: cell-based, Murine; settings: pACP1780 6.23 µM, pACP2283 10.56 µM, 1, 2, 6, 12 h, PI 10 µg ml-1 45 min, ex/em 535/617 nm
Description: To explore the anticancer effects of pACP2283 and pACP1780 at the cellular level, we co‐cultured confluent CT26 cells with these pACPs.
Cell viability was assessed using propidium iodide (PI, ZS822‐1) according to the manufacturer's instructions. Briefly, CT26 cells were seeded in a 96‐well plate at a density of 1×10^4 cells per well. After 24 h, pACP1780 and pACP2283 were added to the wells at concentrations of 6.23 and 10.56 µM, respectively. The plate was then incubated for 1, 2, 6, and 12 h. Subsequently, the cells were cultured in medium containing 10 µg ml^−1 PI for 45 min. The fluorescence intensity was measured using a CytationTM 5 instrument (Bio Tek) with excitation/emission wavelengths of 535/617 nm.

[7] = system: LCC; experiment: MTT primary screening of anticancer activity, LCC; assay type: cell-based; settings: 25 µM pACP, 24 h, maintenance medium 1% FBS, ratio of viability to vehicle (PBS), at least three technical repetitions
Procedure, shortened: as §1

Sequence: WWRRAERSVRRFFGTPIGPFPEIFGRRKAHKKKIIAKFDSVNG [pACP2283]
- tumor size compared to control-treated animals [1]: significantly reduced tumor size
- Mean Diff, tumor volume growth, Control vs. peptide (Dunnett's multiple comparisons test) ([1]; Day 0): 0
- Mean Diff, tumor volume growth, Control vs. peptide (Dunnett's multiple comparisons test) ([1]; Day 1): 0.7285
- Mean Diff, tumor volume growth, Control vs. peptide (Dunnett's multiple comparisons test) ([1]; Day 2): 1.385
- Mean Diff, tumor volume growth, Control vs. peptide (Dunnett's multiple comparisons test) ([1]; Day 3): 1.698
- Mean Diff, tumor volume growth, Control vs. peptide (Dunnett's multiple comparisons test) ([1]; Day 4): 2.95
- Mean Diff, tumor volume growth, Control vs. peptide (Dunnett's multiple comparisons test) ([1]; Day 5): 3.362
- signs of acute toxicity in tumor-bearing mice [1]: no overt signs of acute toxicity were observed
- survival of treated mice [1]: all mice survived
- Survival rate of cancer cells in primary screening [2]: 0.02
- Survival rate of cancer cells in primary screening [3]: 0.15
- Survival rate of cancer cells in primary screening [4]: 0.0645
- Survival rate of cancer cells in primary screening [5]: 0.00225
- PI fluorescence intensity (damaged cell membranes) [6]: significantly increased fluorescence intensity
- Survival rate of cancer cells in primary screening [7]: 0.49

Sequence: RRFAWIGKLQSRKVRNNIRQYRTKIVRQMRRQIFRQMKQKAE [pACP1780]
- tumor size compared to control-treated animals [1]: significantly reduced tumor size
- Mean Diff, tumor volume growth, Control vs. peptide (Dunnett's multiple comparisons test) ([1]; Day 0): 0
- Mean Diff, tumor volume growth, Control vs. peptide (Dunnett's multiple comparisons test) ([1]; Day 1): 0.4906
- Mean Diff, tumor volume growth, Control vs. peptide (Dunnett's multiple comparisons test) ([1]; Day 2): 0.7153
- Mean Diff, tumor volume growth, Control vs. peptide (Dunnett's multiple comparisons test) ([1]; Day 3): 0.6812
- Mean Diff, tumor volume growth, Control vs. peptide (Dunnett's multiple comparisons test) ([1]; Day 4): 1.652
- Mean Diff, tumor volume growth, Control vs. peptide (Dunnett's multiple comparisons test) ([1]; Day 5): 2.41
- signs of acute toxicity in tumor-bearing mice [1]: no overt signs of acute toxicity were observed
- survival of treated mice [1]: all mice survived
- Survival rate of cancer cells in primary screening [2]: 0.03
- Survival rate of cancer cells in primary screening [3]: 0.01
- Survival rate of cancer cells in primary screening [4]: 0.29
- Survival rate of cancer cells in primary screening [5]: 0.00724
- PI fluorescence intensity (damaged cell membranes) [6]: significantly increased fluorescence intensity
- Survival rate of cancer cells in primary screening [7]: 0.47
